Laboratory results from patent EP4603105A1, “PHARMACEUTICAL COMPOSITION CONTAINING CYCLIC COMPOUND HAVING SELECTIVE KRAS INHIBITORY EFFECT AGAINST HRAS AND NRAS” (CHUGAI SEIYAKU KABUSHIKI KAISHA, priority 2022, dated 2024).
*1 amine or outer side, *2 acyl side, *3 side chain or, on linkers, in order; H or OH if unused. Where a SMILES comes first, the peptide text is derived from it. Bridges are numbered along the chain shown (N, C = ends). [ ]: non-standard residue; d: D form. The star is where a group is joined. hPhe(3-Cl-4-CF3) = N[C@@H](CCc1ccc(C(F)(F)F)c(Cl)c1)C(=O)O; X19 = O=C([C@H](Cc1ccc(C(F)(F)F)cc1)N(CCCF)[*:1])[*:2]; NEtPhe(4-Me) = CCN[C@@H](Cc1ccc(C)cc1)C(=O)O; NMeGly(cPent) = CN[C@H](C(=O)O)C1CCCC1; NMeD = CN[C@@H](CC(=O)O)C(=O)O; NMeL = CN[C@@H](CC(C)C)C(=O)O; Morpholide = C1CN(*)CCO1; NMeA = CN[C@@H](C)C(=O)O; Ac5c = NC1(C(=O)O)CCCC1; Aze = O=C(O)[C@@H]1CCN1; Sar = CNCC(=O)O

Legend:
[1] = test system: human lung cancer strain NCI-H441; format: cell-based
Summary of the method: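 Signal came from […] measured per well once the reagent was added. Beforehand, cells were cultured at 37°C and 5% carbon dioxide on a compound series serially diluted in dimethyl sulfoxide.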

[2] = target: GDP-bound NRAS wild-type protein (Homo sapiens, UniProt P01111); assay: Binding to NRAS by surface plasmon resonance (SPR), KD and KD ratio to KRAS
Summary of the method: (§1)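 Measured at 30°C: SPR with GDP-loaded, E. coli-expressed biotin-Avi RAS captured (~100–300 RU), ascending 75 s compound injections, HBS pH 7.4 with GDP, MgCl2, 4% DMSO. KD from 1:1 fit.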

HRAS wild-type protein = HRAS wild-type protein (Homo sapiens, UniProt P01112); assay: Binding to HRAS by surface plasmon resonance (SPR), KD and KD ratio to KRAS
Summary of the method: as §1

[3] = ratio of KD for GDP-bound NRAS wild-type protein to KD for KRAS
[4] = ratio of KD for HRAS wild-type protein to KD for KRAS
[5] = ratio of the KD value with respect to GDP-bound NRAS wild-type protein to the KD value with respect to KRAS
[6] = ratio of the KD value with respect to HRAS wild-type protein to the KD value with respect to KRAS
[7] = ratio of KD value for GDP-bound NRAS wild-type protein to KD value for KRAS (SPR)
[8] = ratio of KD value for HRAS wild-type protein to KD value for KRAS (SPR)

Sequence of GDP-bound NRAS wild-type protein (P01111 whole entry): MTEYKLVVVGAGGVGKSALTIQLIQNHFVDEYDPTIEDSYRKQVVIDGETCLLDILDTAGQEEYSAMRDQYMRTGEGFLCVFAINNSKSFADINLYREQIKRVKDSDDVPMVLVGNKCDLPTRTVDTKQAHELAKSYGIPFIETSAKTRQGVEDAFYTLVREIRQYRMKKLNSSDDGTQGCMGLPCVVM
Sequence of HRAS wild-type protein (P01112 whole entry): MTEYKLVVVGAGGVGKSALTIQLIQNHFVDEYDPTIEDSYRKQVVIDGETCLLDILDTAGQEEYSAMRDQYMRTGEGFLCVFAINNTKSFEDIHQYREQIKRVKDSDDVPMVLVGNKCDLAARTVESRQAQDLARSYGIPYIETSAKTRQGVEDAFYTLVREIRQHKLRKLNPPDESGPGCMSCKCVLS

| Structure (SMILES) | IC50 [1] [nM] | NRAS /KRAS [2, 3] | HRAS /KRAS (HRAS wild-type protein; [4]) | NRAS /KRAS [2, 5] | HRAS /KRAS (HRAS wild-type protein; [6]) | NRAS /KRAS [2, 7] | HRAS /KRAS (HRAS wild-type protein; [8]) |
| --- | --- | --- | --- | --- | --- | --- | --- |
| CCC[C@H]1C(=O)N[C@@H]([C@@H](C)CC)C(=O)N(C)CC(=O)N(C)[C@H]2C/C=C\CCN(C2=O)[C@@H](Cc2ccc(C(F)(F)F)cc2)C(=O)N(C)CC(=O)N[C@@H](CCc2cc(F)c(C(F)(F)F)c(F)c2)C(=O)N2C[C@H](OCC)C[C@H]2C(=O)N(C)C2(CCC2)C(=O)N(C)[C@@H](C2CCCC2)C(=O)N(C)[C@H](C(=O)N2CCCC2)CC(=O)N1C [PP3120] | 1.9 | AA (a compound having 20 or more is denoted as AA) | A (a compound having 10 or more and less than 20 is denoted as A) | – | – | – | – |
| CCO[C@@H]1C[C@H]2C(=O)NC3(CC(C)(C)C3)C(=O)N(C)[C@@H](C3CCCC3)C(=O)N(C)[C@H](C(=O)N3CCCCC3)CC(=O)N(C)[C@H]3CCC/C=C/c4ccc(cc4)C[C@@H](C(=O)N(C)CC(=O)N[C@@H](CCc4ccc(Cl)c(Cl)c4)C(=O)N2C1)N1CC/C=C\C[C@@H](C1=O)N(C)C(=O)CN(C)C(=O)[C@H]([C@@H](C)CC)NC3=O [PP2578] | 17.7 | AA (a compound having 20 or more is denoted as AA) | A (a compound having 10 or more and less than 20 is denoted as A) | – | – | – | – |
| CC[C@H](C)[C@@H]1NC(=O)[C@H](CC(C)C)N(C)C(=O)C[C@@H](C(=O)N2CCOCC2)N(C)C(=O)[C@H](C2CCCC2)N(C)C(=O)C2(CCC2)NC(=O)[C@@H]2C[C@@H](OCCC(F)(F)F)CN2C(=O)[C@H](CCc2cc(F)c(C(F)(F)F)c(F)c2)NC(=O)CN(C)C(=O)[C@H](Cc2ccc(C(F)(F)F)cc2)N2CCCC[C@@H](C2=O)N(C)C(=O)CN(C)C1=O [PP0998] | 19.7 | B (a compound having 3 or more and less than 10 is denoted as B) | B (a compound having 3 or more and less than 10 is denoted as B) | – | – | – | – |
| CC[C@H](C)[C@@H]1NC(=O)[C@H](C)N(C)C(=O)C[C@@H](C(=O)N2CCOCC2)N(C)C(=O)[C@H](C2CCCC2)N(C)C(=O)C2(CCCC2)NC(=O)[C@@H]2CCCN2C(=O)[C@H](CCc2ccc(C(F)(F)F)c(Cl)c2)NC(=O)CN(C)C(=O)[C@H](Cc2ccc(C)cc2)N(CC)C(=O)CN(C)C(=O)CN(C)C1=O [PP0031] ([NMeA]I[Sar][Sar][NEtPhe(4-Me)][Sar][hPhe(3-Cl-4-CF3)]P[Ac5c][NMeGly(cPent)][NMeD]-Morpholide; lactam N-11) | 11.4 | B (a compound having 3 or more and less than 10 is denoted as B) | C (A compound having a KD ratio of 0.1 or more and less than 3 is denoted as C) | – | – | – | – |
| CC[C@H](C)[C@@H]1NC(=O)[C@H](CC(C)C)N(C)C(=O)C[C@@H](C(=O)N2CCOCC2)N(C)C(=O)[C@H](CC(F)(F)F)N(C)C(=O)C2(CCCC2)NC(=O)[C@@H]2CCCN2C(=O)[C@H](CCc2cc(F)c(C(F)(F)F)c(F)c2)NC(=O)CN(C)C(=O)[C@H](Cc2ccc(C(F)(F)F)cc2)N2CCCC[C@@H](C2=O)N(C)C(=O)CN(C)C1=O [PP0568] | 79.5 | – | – | B (a compound having 3 or more and less than 10 is denoted as B) | B (a compound having 3 or more and less than 10 is denoted as B) | – | – |
| CC[C@H](C)[C@@H]1NC(=O)[C@H](CC(C)C)N(C)C(=O)CSC[C@H](C(=O)N(C)C)N(C)C(=O)[C@H](C2CCCC2)N(C)C(=O)C2(CCCC2)NC(=O)[C@@H]2CCCN2C(=O)[C@@H](CCc2cc(F)c(C(F)(F)F)c(F)c2)NC(=O)CN(C)C(=O)[C@H](Cc2ccc(C(F)(F)F)cc2)N2CC=CC[C@@H](C2=O)N(C)C(=O)CN(C)C1=O [PP3108] | 9250 | C (A compound having a KD ratio of 0.1 or more and less than 3 is denoted as C) | B (a compound having 3 or more and less than 10 is denoted as B) | – | – | – | – |
| CCO[C@@H]1C[C@H]2C(=O)NC3(CCC3)C(=O)N(C)[C@@H](C(CC)CC)C(=O)N(C)[C@H](CC)CC(=O)N(C)[C@@H](CC)C(=O)N[C@@H]([C@@H](C)CC)C(=O)N(C)CC(=O)N(C)[C@H]3C/C=C\CCN(C3=O)[C@@H](Cc3ccc(C(F)(F)F)cc3)C(=O)N(C)CC(=O)N[C@@H](CCc3cc(F)c(C(F)(F)F)c(F)c3)C(=O)N2C1 [PP1624] | 55.8 | – | – | – | – | A (a compound having 10 or more and less than 20 is denoted as A) | A (a compound having 10 or more and less than 20 is denoted as A) |
| CC[C@H](C)[C@@H]1NC(=O)[C@H](CC(C)C)N(C)C(=O)C[C@@H](C(=O)N2CCOCC2)N(C)C(=O)[C@H](C2CCCC2)N(C)C(=O)C2(CCCC2)NC(=O)[C@@H]2CCCN2C(=O)[C@H](CCc2ccc(C(F)(F)F)c(Cl)c2)NC(=O)CN(C)C(=O)[C@H](Cc2ccc(C(F)(F)F)cc2)N(CCCF)C(=O)[C@@H]2CCN2C(=O)[C@H](C)N(C)C1=O [PP0525] ([NMeL]I[NMeA][Aze][X19][Sar][hPhe(3-Cl-4-CF3)]P[Ac5c][NMeGly(cPent)][NMeD]-Morpholide; lactam N-11) | 2.1 | – | – | C (A compound having a KD ratio of 0.1 or more and less than 3 is denoted as C) | B (a compound having 3 or more and less than 10 is denoted as B) | – | – |
| CCCO[C@@H]1C[C@H]2C(=O)NC3(CCC3)C(=O)N(C)[C@@H](C3CCCC3)C(=O)N(C)[C@H](C(=O)N3CCOCC3)CC(=O)N(C)[C@@H](COC)C(=O)N[C@@H]([C@@H](C)CC)C(=O)N(C)CC(=O)N(C)[C@H]3CCCCCN(C3=O)[C@@H](Cc3ccc(C(F)(F)F)cc3)C(=O)N(C)CC(=O)N[C@@H](CCc3cc(F)c(C(F)(F)F)c(F)c3)C(=O)N2C1 [PP0838] | 50.4 | B (a compound having 3 or more and less than 10 is denoted as B) | B (a compound having 3 or more and less than 10 is denoted as B) | – | – | – | – |
| CCO[C@@H]1C[C@H]2C(=O)NC3(CC(C)(C)C3)C(=O)N(C)[C@@H](C(CC)CC)C(=O)N(C)[C@H](C(=O)N(C)C)CC(=O)N(C)[C@@H](CC3CCC3)C(=O)N[C@@H]([C@@H](C)CC)C(=O)N(C)CC(=O)N(C)[C@H]3C/C=C\CCN(C3=O)[C@@H](Cc3ccc(C(F)(F)F)cc3)C(=O)N(C)CC(=O)N[C@@H](CCc3cc(F)c(C(F)(F)F)c(F)c3)C(=O)N2C1 [PP2133] | 16.2 | – | – | AA (a compound having 20 or more is denoted as AA) | A (a compound having 10 or more and less than 20 is denoted as A) | – | – |
| CCC[C@H]1C(=O)N[C@@H]([C@@H](C)CC)C(=O)N(C)CC(=O)N(C)[C@H]2C/C=C\CCN(C2=O)[C@@H](Cc2ccc(C)cc2)C(=O)N(C)CC(=O)N[C@@H](CCc2cc(Cl)c3c(ccn3C)c2)C(=O)N2C[C@H](OCC)C[C@H]2C(=O)NC2(CC(C)(C)C2)C(=O)N(C)[C@@H](C(CC)CC)C(=O)N(C)[C@H](C(=O)N(C)C)CC(=O)N1C [PP2898] | 98.1 | A (a compound having 10 or more and less than 20 is denoted as A) | A (a compound having 10 or more and less than 20 is denoted as A) | – | – | – | – |
| CC[C@H](C)[C@@H]1NC(=O)[C@H](CC2CC2)N(C)C(=O)C[C@@H](C(=O)N(C)CC)N(C)C(=O)[C@H](C2CCCC2)N(C)C(=O)C2(CCC2)NC(=O)[C@@H]2C[C@H](C)CN2C(=O)[C@H](CCc2cc(F)c(C(F)(F)F)c(F)c2)NC(=O)CN(C)C(=O)[C@H](Cc2ccc(C(F)(F)F)cc2)N2CC/C=C\C[C@@H](C2=O)N(C)C(=O)CN(C)C1=O [PP1537] | 7.9 | – | – | – | – | AA (a compound having 20 or more is denoted as AA) | A (a compound having 10 or more and less than 20 is denoted as A) |
